According to patent US20230167118A1, “DEGRADATION OF BRUTON'S TYROSINE KINASE (BTK) BY CONJUGATION OF BTK INIDBITORS WITH E3 LIGASE LIGAND AND METHODS OF USE” (BEIGENE, LTD., priority 2020, published 2023):

Legend:
BTK = target: T1, BTK (Homo sapiens, UniProt Q06187); assay: Cell Degradation: BTK degradation in TMD-8 cells, HTRF assay; format: cell-based; conditions: 6 h treatment, IC50 (DC50) of BTK degradation
T1 construct: High control=Cell group with added DMSO and without compound, indicating microplate readings without BTK degradation; endogenous in cells; host or cells: TMD-8 cells
Experimental: TMD-8 cells are treated with compounds in 0.2% DMSO, dilution is done according to the following protocol: (1) make 500× stock solution in DMSO from 1 mM by 6-fold dilution, total 8 doses were included; (2) make 2× solution in cell culture medium by transferring 0.5 μl 500× stock solution into 125 μl medium; (3) 15 μl of 2× solution is added to cells and incubate for 6 h.
After 6 h treatment, add […] 4×lysis buffer to each well; seal the plate and incubate 30 min at room temperature on a plate shaker; Once the cells are lysed, 16 μL of cell lysate are transferred to a PE 384-well HTRF detection plate; 4 μL of pre-mixed HTRF antibodies are added to each well; Cover the plate with a plate sealer, spin 1000 rpm for 1 min, Incubate overnight at room temperature; Read on BMG PheraStar with HTRF protocol (337 nm-665 nm-620 nm).
The inhibition (degradation) percentage of the compound was calculated by the following equation: Inhibition percentage of Compound=100-100× (Signal-low control)/(High control-low control), wherein signal=each test compound group
Dmax is the maximum percentage of inhibition (degradation).
The IC50 (DC50) value of a compound can be obtained by fitting the following equation
Y=Bottom+(TOP-Bottom)/(1+((IC50/X)^hillslope))
(§1) Wherein, X and Y are known values, and IC50, Hillslope, Top and Bottom are the parameters obtained by fitting with software. Y is the inhibition percentage (calculated from the equation), X is the concentration of the compound; IC50 is the concentration of the compound when the 50% inhibition is reached. The smaller the IC50 value is, the stronger the inhibitory ability of the compound is. Vice versa, the higher the IC50 value is, the weaker the ability the inhibitory ability of the compound is; Hillslope represents the slope of the fitted curve, generally around 1 *; Bottom represents the minimum value of the curve obtained by data fitting, which is generally 0%±20%; Top represents the maximum value of the curve obtained by data fitting, which is generally 100%±20%. The experimental data were fitted by calculating and analyzing with Dotmatics data analysis software.

HEK-293 cells = assay: HEK-293 Cytotoxicity Assay (CellTiter-Glo); format: cell-based; conditions: Homo sapiens, HEK293, 72 h incubation, CellTiter-Glo luminescence
Experimental: HEK-293 Cytotoxicity Assay
HEK-293 cells are treated with compounds diluted in 0.2% DMSO, dilution is done according to the following protocol: (1) make 500× stock solution in DMSO from 5 mM by 4-fold dilution, total 8 doses were included; (2) make 2× solution in cell culture medium by transferring 0.5 ul 500× stock solution into 125 ul medium; (3) 50 ul of 2× solution is added to cells and incubate for 72 h.
Add 25 μl of the CellTiter-Glo®Reagent [I (Promega)—Cat No. G7572] to each well in the 96-well plate. Mix contents for 2 minutes on an orbital shaker to induce cell lysis. Allow the plate to incubate at room temperature for 10 minutes to stabilize luminescent signal. Record luminescence on BMG PheraStar with luminescence protocol.
as §1, with “The IC50 value of a compound can be obtained by fitting the following equation. Y=Bottom+(TOP−Bottom)/(1+((IC50/X)^hillslope)) Wherein,” for “Wherein,”, “1*;” for “1 *;”

T1 sequence (Q06187 whole entry): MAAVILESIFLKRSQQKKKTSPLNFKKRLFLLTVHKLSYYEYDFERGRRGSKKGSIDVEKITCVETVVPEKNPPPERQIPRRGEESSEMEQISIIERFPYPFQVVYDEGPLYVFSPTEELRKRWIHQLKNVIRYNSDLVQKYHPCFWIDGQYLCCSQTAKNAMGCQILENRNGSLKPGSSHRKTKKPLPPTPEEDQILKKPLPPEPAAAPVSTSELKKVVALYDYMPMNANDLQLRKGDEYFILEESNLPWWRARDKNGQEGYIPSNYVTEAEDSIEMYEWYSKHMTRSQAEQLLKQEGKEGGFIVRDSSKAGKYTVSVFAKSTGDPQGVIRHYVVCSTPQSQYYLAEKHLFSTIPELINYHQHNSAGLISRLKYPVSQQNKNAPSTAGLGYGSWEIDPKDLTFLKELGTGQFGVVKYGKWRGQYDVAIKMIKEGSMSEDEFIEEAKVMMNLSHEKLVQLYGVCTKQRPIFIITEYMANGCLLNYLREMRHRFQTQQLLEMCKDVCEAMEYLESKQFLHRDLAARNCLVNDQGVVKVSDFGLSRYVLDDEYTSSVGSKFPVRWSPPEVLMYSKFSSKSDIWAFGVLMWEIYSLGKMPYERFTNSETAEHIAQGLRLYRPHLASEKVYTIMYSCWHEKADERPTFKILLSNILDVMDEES

Compound | DC50 (BTK) | IC50 (HEK-293 cells)
Cc1cc(-c2ncnc3[nH]c(-c4ccc(C5CCN(CCC6CCN(c7ccc(N8CCC(=O)NC8=O)c(C)n7)CC6)CC5)cc4)cc23)ccc1CNC(=O)c1nc(C(C)(C)C)no1 [Example 13, 3-(tert-butyl)-N-(4-(6-(4-(1-(2-(1-(5-(2,4-dioxotetrahydropyrimidin-1(2H)-yl)-6-methylpyridin-2-yl)piperidin-4-yl)ethyl)piperidin-4-yl)phenyl)-7H-pyrrolo[2,3-d]pyrimidin-4-yl)-2-methylbenzyl)-1,2,4-oxadiazole-5-carboxamide] | 2.3 nM | 1860 nM
Cc1cc(-c2ncnc3[nH]c(-c4ccc(C5CCN(CCC6CCN(c7ccc(N8CCC(=O)NC8=O)c(F)c7)CC6)CC5)cc4)cc23)ccc1CNC(=O)c1nc(C(C)(C)C)no1 [Example 15, 3-(tert-butyl)-N-(4-(6-(4-(1-(2-(1-(4-(2,4-dioxotetrahydropyrimidin-1(2H)-yl)-3-fluorophenyl)piperidin-4-yl)ethyl)piperidin-4-yl)phenyl)-7H-pyrrolo[2,3-d]pyrimidin-4-yl)-2-methylbenzyl)-1,2,4-oxadiazole-5-carboxamide] | 1 nM | 1230 nM
Cc1cc(-c2ncnc3[nH]c(-c4ccc(C5CCN(CC6CCN(c7ccc8c(c7)CN(C7CCC(=O)NC7=O)C8=O)CC6)CC5)cc4)cc23)ccc1CNC(=O)c1nc(C(C)(C)C)no1 (centres unmarked) [Example 17, 3-(tert-butyl)-N-(4-(6-(4-(1-((1-(2-(2,6-dioxopiperidin-3-yl)-1-oxoisoindolin-5-yl)piperidin-4-yl)methyl)piperidin-4-yl)phenyl)-7H-pyrrolo[2,3-d]pyrimidin-4-yl)-2-methylbenzyl)-1,2,4-oxadiazole-5-carboxamide] | 3.2 nM | > 10000 nM
Cc1cc(-c2ncnc3[nH]c(-c4ccc(N5CCN(CC6CCN(c7ccc(N8CCC(=O)NC8=O)cc7)CC6)CC5)cc4)cc23)ccc1CNC(=O)c1nc(C(C)(C)C)no1 [Example 18, 3-(tert-butyl)-N-(4-(6-(4-(4-((1-(4-(2,4-dioxotetrahydropyrimidin-1(2H)-yl)phenyl)piperidin-4-yl)methyl)piperazin-1-yl)phenyl)-7H-pyrrolo[2,3-d]pyrimidin-4-yl)-2-methylbenzyl)-1,2,4-oxadiazole-5-carboxamide] | 1.7 nM | > 10000 nM
Cc1cc(-c2ncnc3[nH]c(-c4ccc(N5CCN(CC6CCN(c7ccc(N8CCC(=O)NC8=O)cc7)CC6)CC5)cc4)cc23)ccc1[C@@H](C)NC(=O)c1nc(C(C)(C)C)no1 [Example 20, (R)-3-(tert-butyl)-N-(1-(4-(6-(4-(4-((1-(4-(2,4-dioxotetrahydropyrimidin-1(2H)-yl)phenyl)piperidin-4-yl)methyl)piperazin-1-yl)phenyl)-7H-pyrrolo[2,3-d]pyrimidin-4-yl)-2-methylphenyl)ethyl)-1,2,4-oxadiazole-5-carboxamide] | 1.4 nM | > 10000 nM
C[C@@H](NC(=O)c1nc(C(C)(C)C)no1)c1ccc(-c2ncnc3[nH]c(-c4ccc(N5CCN(CC6CCN(c7ccc(N8CCC(=O)NC8=O)cc7)CC6)CC5)cc4)cc23)cc1F [Example 21, (R)-3-(tert-butyl)-N-(1-(4-(6-(4-(4-((1-(4-(2,4-dioxotetrahydropyrimidin-1(2H)-yl)phenyl)piperidin-4-yl)methyl)piperazin-1-yl)phenyl)-7H-pyrrolo[2,3-d]pyrimidin-4-yl)-2-fluorophenyl)ethyl)-1,2,4-oxadiazole-5-carboxamide] | 1.7 nM | > 10000 nM
Cc1cc(-c2ncnc3[nH]c(-c4ccc(C5CCN(CCC6CCN(c7ccc(N8CCC(=O)NC8=O)c(C)c7)CC6)CC5)cc4)cc23)ccc1CNC(=O)c1nc(C(C)(C)C)no1 [Example 22, 3-(tert-butyl)-N-(4-(6-(4-(1-(2-(1-(4-(2,4-dioxotetrahydropyrimidin-1(2H)-yl)-3-methylphenyl)piperidin-4-yl)ethyl)piperidin-4-yl)phenyl)-7H-pyrrolo[2,3-d]pyrimidin-4-yl)-2-methylbenzyl)-1,2,4-oxadiazole-5-carboxamide] | 2.3 nM | 1560 nM
Cc1cc(-c2ncnc3[nH]c(-c4ccc(C5CCN(CCC6CCN(c7ccc(N8CCC(=O)NC8=O)c(Cl)c7)CC6)CC5)cc4)cc23)ccc1CNC(=O)c1nc(C(C)(C)C)no1 [Example 24, 3-(tert-butyl)-N-(4-(6-(4-(1-(2-(1-(3-chloro-4-(2,4-dioxotetrahydropyrimidin-1(2H)-yl)phenyl)piperidin-4-yl)ethyl)piperidin-4-yl)phenyl)-7H-pyrrolo[2,3-d]pyrimidin-4-yl)-2-methylbenzyl)-1,2,4-oxadiazole-5-carboxamide] | 4.8 nM | 4650 nM
Cc1cc(-c2ncnc3[nH]c(-c4ccc(N5CCN(CC6CCN(c7ccc(N8CCC(=O)NC8=O)cc7)CC6)CC5)cc4)nc23)ccc1[C@@H](C)NC(=O)c1nc(C(C)(C)C)no1 [Example 25, (R)-3-(tert-butyl)-N-(1-(4-(8-(4-(4-((1-(4-(2,4-dioxotetrahydropyrimidin-1(2H)-yl)phenyl)piperidin-4-yl)methyl)piperazin-1-yl)phenyl)-9H-purin-6-yl)-2-methylphenyl)ethyl)-1,2,4-oxadiazole-5-carboxamide] | 1.4 nM | > 10000 nM

The next molecules have a lower DC50 (BTK) than those just listed; values first:

DC50 (BTK) | Compound | IC50 (HEK-293 cells)
0.72 nM | Cc1cc(-c2ncnc3[nH]c(-c4ccc(N5CCN(CC6CCN(c7ccc(N8CCC(=O)NC8=O)cc7)CC6)CC5)nc4)cc23)ccc1[C@@H](C)NC(=O)c1nc(C(C)(C)C)no1 [Example 14, (R)-3-(tert-butyl)-N-(1-(4-(6-(6-(4-((1-(4-(2,4-dioxotetrahydropyrimidin-1(2H)-yl)phenyl)piperidin-4-yl)methyl)piperazin-1-yl)pyridin-3-yl)-7H-pyrrolo[2,3-d]pyrimidin-4-yl)-2-methylphenyl)ethyl)-1,2,4-oxadiazole-5-carboxamide] | > 10000 nM
0.55 nM | CC(C)(C)c1noc(C(=O)NCc2ccc(-c3ncnc4[nH]c(-c5cnn(C6CCN(CC7CCN(c8ccc(N9CCC(=O)NC9=O)cc8)CC7)CC6)c5)cc34)cc2F)n1 [Example 16, 3-(tert-butyl)-N-(4-(6-(1-(1-((1-(4-(2,4-dioxotetrahydropyrimidin-1(2H)-yl)phenyl)piperidin-4-yl)methyl)piperidin-4-yl)-1H-pyrazol-4-yl)-7H-pyrrolo[2,3-d]pyrimidin-4-yl)-2-fluorobenzyl)-1,2,4-oxadiazole-5-carboxamide] | > 10000 nM
0.72 nM | Cc1cc(-c2ncnc3[nH]c(-c4ccc(N5CCN(CC6CCN(c7ccc(N8CCC(=O)NC8=O)cc7)CC6)CC5)cn4)cc23)ccc1[C@@H](C)NC(=O)c1nc(C(C)(C)C)no1 [Example 19, (R)-3-(tert-butyl)-N-(1-(4-(6-(5-(4-((1-(4-(2,4-dioxotetrahydropyrimidin-1(2H)-yl)phenyl)piperidin-4-yl)methyl)piperazin-1-yl)pyridin-2-yl)-7H-pyrrolo[2,3-d]pyrimidin-4-yl)-2-methylphenyl)ethyl)-1,2,4-oxadiazole-5-carboxamide] | > 10000 nM
0.87 nM | CC(C)(C)c1noc(C(=O)NCc2ccc(-c3ncnc4[nH]c(-c5ccc(C6CCN(CC7CCN(c8ccc(N9CCC(=O)NC9=O)cc8)CC7)CC6)cc5)cc34)cc2F)n1 [Example 23] | > 10000 nM
